Measurements as given in patent US20100204112A1, “USE OF TYR-W-MIF-1 AND UROCORTIN 2 AS THERAPEUTIC AGENTS” (priority 2007, published 2010).
Where no end group is shown, it is not given here.

What was measured:
[1] = tested on: HIV-1IIIB; assay: HIV-1 antiviral assay in CEM-SS cells (MTS readout)
[2] = tested on: hepatitis B virus (HBV) ayw strain; assay: HBV experimental assay system (HepG2-2.2.15, TaqMan PCR of secreted HBV DNA); type: cell-based; settings: 10 micrograms per ml; HepG2-2.2.15 cells; six days; HBV DNA by TaqMan PCR
Text: HepG2-2.2.15 is a stable cell line containing the hepatitis B virus (HBV) ayw strain genome (ATCC Cat. No. CRL-11997). Antiviral compounds blocking any late step of viral replication such as transcription, translation, pregenome encapsidation, reverse transcription, particle assembly and release can be identified and characterized using this cell line. In this assay, an active compound will reduce the production of secreted HBV from cells, measured by utilizing real time quantitative PCR (TaqMan) assay to directly and accurately measure HBV DNA copies.
HepG2-2.2.15 cells were plated in 96-well microtiter plates. After 16-24 hours the confluent monolayer of HepG2-2.2.15 cells was washed and the medium was replaced with complete medium containing test peptides—10 micrograms per ml—in duplicate. […] Six days following the initial administration of the peptides, the cell culture supernatants was collected, treated with pronase and DNAse and then used in a real-time quantitative TaqMan PCR assay. The PCR-amplified HBV DNA was detected in real-time by monitoring increases in fluorescence signals that result from the exonucleolytic degradation of a quenched fluorescence probe molecule that hybridizes to the amplified HBV DNA. […] Antiviral activity was calculated from the reduction in HBV DNA levels (% virus control). […]

[3] = tested on: spleen cells; assay: Th1/Th2 cytokine profiling assay (Ovalbumin-restimulated spleen cells, CBA Kit); type: cell-based, Balb/c mice; settings: 10 micrograms per ml; Ovalbumin restimulation; 72 hours
Text: The Balb/c mice (originated in 1923, it is a popular strain and is used in many different research disciplines. Also classified as an inbred from the production of 20 or more successive brother-sister matings, the Balb/c mouse is albino and small in size) were immunized on Days 1, 15, and 29 with Ovalbumin (Ovalbumin is the main protein found in egg white, commonly used to stimulate an immunological reaction in test animals) in PBS (5 micrograms/injection). On day 50, spleens of the mice were harvested (3 weeks after last boost with Ovalbumin). […] Thereafter, additional Ovalbumin was added to the cells at 10 micrograms/ml for in vitro restimulation of the cells. 72 hours later, cell supernatants were harvested and assayed using the Becton Dickinson Mouse Th1/Th2 Cytokine CBA Kit. This kit can be used to measure Interleukin-2 (IL-2), Interleukin-4 (IL-4), Interleukin-5 (IL-5), Interferon-γ (IFN-γ), and Tumor Necrosis Factor-α (TNF-α) protein levels in a single sample.

[4] = tested on: Primary Human endothelial cells (HUVEC); assay: Endothelial cell migration assay; settings: 10 micrograms per ml, 22 hours, combination peptide 1:peptide 2 0.95 mole:1.05 mole
Experimental: Primary Human endothelial cells (HUVEC) were seeded in insert chambers with 3 micrometer pore size of multi-transwell plate for 6 hours at 37° C. in Endothelial Cell Basal Medium (EBM) supplemented with 0.1% bovine serum albumin. Thereafter, designated concentration of testing peptides -10 micrograms per ml—was added in duplicate wells. The endothelia were allowed to migrate for 22 hours at 37° C., then, migrated cells were fixed and stained with Hoechst 33342 dye. Images of 3 fields per insert were taken and the number of migrated cells per field were quantified using the ImageProPlus software. Data were analyzed for the average number of the migrated cells and standard deviation of six data points for each treatment condition. […] Statistic p values were computed using the Student's t-test.

[5] = tested on: HUVEC; assay: Endothelial tube formation assay; settings: 10 micrograms per ml, 20 hours, combination peptide 1:peptide 2 0.95 mole:1.05 mole
Experimental: The endothelial tube formation assay is based on the ability of endothelial cells to form three-dimensional capillary-like tubular structures when cultured on a gel of basement membrane extract. […] Pre-labeled HUVEC with Calcein AM were seeded in a 96-well culture plate coated with extracellular metrix (Chemicon international Cat. ECM625) and treated with test peptides—10 micrograms per ml—in full growth medium. Positive control was vehicle only. The endothelial cells were allowed to form tubes foe 20 hours and were then examined under an inverted fluorescent microscope. Duplicate wells for each treatment were photographed and quantitatevily analyzed for an average tubule length using image analysis software ImageProPlus. Raw data were expressed as average tubule lengths in pixels ±standard deviation. Statistic p values were computed using the Student's t-test.

[6] = tested on: HCMV strain AD169; assay: HCMV plaque formation assay in MRC-5 cells; settings: 10 micrograms per ml, 7-10 days
[7] = tested on: RAW 264.7 cells; assay: Phagocytosis assay (Fluorescein-labeled Escherichia coli, flow cytometry); settings: 10 micrograms per ml, combination peptide 1:peptide 2 1.10 mole:0.90 mole
Experimental: RAW 264.7 (Mouse leukaemic monocyte macrophage cell line) cells were obtained from ATCC and grown in RPMI 1640 medium containing 10% FBS. Cells were incubated in 12×75 mm tubes at 37° C. with test peptides—10 micrograms per ml—for 30 min prior to adding Fluorescein-labeled Escherichia coli bacteria as the agent to be ingested. After the cells were incubated for additional 60 min at 37° C. and allowed to ingest the Fluorescein-labeled Escherichia coli bacteria, cells were fixed with 1% paraformaldehyde. The samples were then analyzed by flow cytometry to determine the amount of phagocytosis as a function of brightness (the greater the phagocytic activity, the more fluorescence in the macrophage population). Data are reported as % positive and the mean fluorescence intensity (MFI) of positively stained cells.

Compound	antiviral activity of positive control compounds (HIV-1) [1]	inhibition of HBV replication as compared to the virus control infection [2]	IFNγ spleen cells; TH1 response (% of control) [3]	IL-2 spleen cells (% of control) [3]	IL-4 spleen cells; TH2 response (% of control) [3]	IL-5 spleen cells; TH2 response (% of control) [3]	TNF-a spleen cells; TH1 response (% of control) [3]	inhibition of the migration of human endothelial cells [4]	inhibition of the tube formation of endothelial cells [5]	inhibition of HCMV plaque formation as compared to the virus control [6]	effect on the phagocytic activity of murine macrophages (increase) [7]
Cc1cn([C@H]2C[C@H](N=[N+]=[N-])[C@@H](CO)O2)c(=O)[nH]c1=O [AZT]	expected levels of antiviral activity										
CC(C)(C)NC(=O)[C@@H]1CN(Cc2cccnc2)CCN1C[C@@H](O)C[C@@H](Cc1ccccc1)C(=O)N[C@H]1c2ccccc2C[C@H]1O [indinavir]	expected levels of antiviral activity										
His-Pro-Gly-Ser-Arg-Ile-Val-Leu-Ser-Leu-Asp-Val-Pro-Ile-Gly-Leu-Leu-Gln-Ile-Leu-Leu-Glu-Gln-Ala-Arg-Ala-Arg-Ala-Ala-Arg-Glu-Gln-Ala-Thr-Thr-Asn-Ala-Arg-Ile-Leu-Ala-Arg-Val-NH2 (HPGSRIVLSLDVPIGLLQILLEQARARAAREQATTNARILARV-NH2) [Peptide 2]		no effect	105.6 % of control	66.8 % of control	68.9 % of control	67.0 % of control	125.6 % of control	15%	35%	did not inhibit	31.4%
Tyr-Pro-Trp-Gly-NH2 (YPWG-NH2) [Peptide 1]		14.7%	62.0 % of control	83.2 % of control	77.4 % of control	57.1 % of control	82.3 % of control	did not inhibit	40%	did not inhibit	no inhibitory or activating effects
